One experiment has as its system IMR-32. In words: IC50 on cell viability, Cell Counting Kit-8. It is filed as cell-based. Conditions: Homo sapiens; code 15, IMR-32, Brain Neuroblastoma; cell viability 120 h after administration. Here is the method:
(§1) A panel of 36 human cell lines were first tested in terms of population doubling time and growth curves to determine the conditions for further assays. The cells were also tested to determine the dose of radiation that produces 50% cell viability (D50). […] Cell viability was determined 120 h after the administration of the compounds using the Cell Counting Kit-8 (Dojindo Molecular Technologies, Inc, Rockville, Md.). In the experiments, 0.1% SDS and 1% DMSO were used as positive and negative controls, respectively. Final concentrations of the compounds used in the experiments are listed below in Table 5: […]

Another experiment has as its system MML-1. The experiment can be described thus: IC50 on cell viability, Cell Counting Kit-8. Conditions: Homo sapiens; code 27, MML-1, Skin Melanoma; cell viability 120 h after administration. It is filed as cell-based. Here is the method: as §1
Background: Formazan colour is commonly taken as a measure of viable cells.

The test system of another experiment is SK-N-AS. The experiment can be described thus: IC50 on cell viability, Cell Counting Kit-8. It counts as cell-based. The note with it: Homo sapiens; code 17, SK-N-AS, Brain Neuroblastoma; cell viability 120 h after administration. Here is the method:
as §1

A further experiment deals with SK-ES-1. The experiment can be described thus: IC50 on cell viability, Cell Counting Kit-8. It counts as cell-based. The note with it: Homo sapiens, SK-ES1; code 30, SK-ES-1, Bone Osteosarcoma; cell viability 120 h after administration. Here is the method:
as §1

The test system of the next experiment is CHP-126. The experiment can be described thus: IC50 on cell viability, Cell Counting Kit-8. It is filed as cell-based. The note with it: Homo sapiens; code 14, CHP-126, Brain Neuroblastoma; cell viability 120 h after administration. Here is the method: as §1
Another experiment deals with MSTO-211H. The experiment can be described thus: IC50 on cell viability, Cell Counting Kit-8. It is filed as cell-based. Conditions: Homo sapiens; code 21, MSTO-211H, Lung Biphasic Mesothelioma; cell viability 120 h after administration. Here is the method:
as §1

The next experiment deals with HT-29 xenografts. The experiment can be described thus: HT-29 xenograft growth. It is filed as in vivo, nu/nu nude mice. The note with it: i.v., 40 mg of t-PTER or QUER/kg×day, single PF. Here is the method:
Tumor growth was measured during a 30-day period. Tumor volume, one week after inoculation and before PF administration, was of 56+15 mm3. A. […] B. Growth profile of control ([…]) and t-PTER- and QUER (∘) (20 mg of each PF/kg)-treated HT-29-bearing mice. Data are means±S.D. of 18-20 mice per group. The significant test refers, for all groups, to the comparison between PTER and/or QUER and controls (treated with physiological saline) (*P<0.01). For HT-29 cancer cell xenograft experiments, female nu/nu nude mice (ages 6 to 8 weeks; […] Tumor volume was calculated based on two dimensions, measured using calipers, and was expressed in cubic millimeters according to the formula: […] For histological analysis the surgical and xenograft tissue samples were fixed in 4% formaldehyde, paraffin embedded, and stained with hematoxilin & eosin and safran. […] This study was conducted in compliance with international laws and policies (EEC Directive 86/609, OJ L 358. 1, Dec. 12, 1987; and NIH Guide for the Care and Use of Laboratory Animals, NIH Publ. No. 85-23, 1985). X rays were administered using a […] SL75 linear accelerator from Philips. For this purpose each mouse was anesthetized with nembutal (50 mg/kg i.p.), and fixed on a Perspex platform.

The test system of experiment [1] is Human melanoma (A375), breast cancer (MCF7), lung cancer (A549), and colon cancer (HT29) cell lines. In words: Cell cycle study (flow cytometry). It counts as cell-based. Conditions: treated for 24 h; FIG. 9. Here is the method: Cancer cells (0.2×10^6 cells/well) were seeded in six well-plates and, 24 h later, were treated for 24 h with different concentrations ([…]) of PTER or ReES. Cells were trypsinized and pelleted at 1000×g for 2 min. Cells were resuspended in PBS. Ethanol was added up to a final 70% conc. The DNA cellular content was analyzed by flow cytometry (10000 cell events were collected per sample). Results are expressed as % of total cells±SD (n=3).
The aim of this study was to determine whether pterostilbene causes cytotoxicity in human tumors at concentrations that are reliable under in vivo conditions; and, to identify which death-related molecular mechanisms may be activated by the compound. Human melanoma (A375), breast cancer (MCF7), lung cancer (A549), and colon cancer (HT29) cell lines were used in this set of experiments. Pterostilbene and resveratrol were used in a μM range, between 10 μM (below the IC50 for all cell lines) and 200 μM (an unachievable in vivo concentration). Cell cycle and apoptosis induction were determined by flow cytometry.
(§2) The effects of pterostilbene and resveratrol on cell cycle were tested. […] Both DNA synthesis and tubulin polymerization were seriously affected.

For a further experiment, the system named is caspase 3. In words: Caspase-3 activity (Apo-ONE Homogeneous Caspase-3 Assay). It is filed as cell-based, human. Conditions: within a 24 h-period. Here is the method: Aspase-3 activity was measured with Apo-ONE® Homogeneous Caspase-3 Assay (Promega). The assay was configured for 96 well plates (5000 cells/well). Cells were plated for 24 h. Capase-3/7 activities were evaluated 24 h after polyphenols addition. Fluorescence (a.u.) was expressed as relative index where control is 1. Results are expressed as relative proliferation index±SD (n=3).
as §2

In experiment [2] the test system is Human melanoma (A375), breast cancer (MCF7), lung cancer (A549), and colon cancer (HT29) cell lines. The experiment can be described thus: Apoptosis induction (flow cytometry). It counts as cell-based. Conditions: with increasing concentration. Here is the method: The aim of this study was to determine whether pterostilbene causes cytotoxicity in human tumors at concentrations that are reliable under in vivo conditions; and, to identify which death-related molecular mechanisms may be activated by the compound. Human melanoma (A375), breast cancer (MCF7), lung cancer (A549), and colon cancer (HT29) cell lines were used in this set of experiments. […] Cell cycle and apoptosis induction were determined by flow cytometry. […] The tumor cell death induced by pterostilbene appears to be partially independent of caspase activity.

The test system is the same in experiment [3]. The experiment can be described thus: Necrosis induction (LDH released to the extracellular medium). It counts as cell-based. Conditions: with increasing concentration; FIG. 10. Here is the method:
Necrosis induction was evaluated by measuring lactate dehydrogenase (LDH) activity released to the extracellular medium. Cells were exposed to polyphenols for 24-72 h. Results are expressed as relative LDH activity±SD (n=3) where control is 100.
The tumor cell death induced by pterostilbene appears to be partially independent of caspase activity.
(Release of lactate dehydrogenase indicates damage to the cell membrane.)

Usually IC50 stands for the concentration that inhibits the measured activity by half. Low readings indicate higher potency, high ones lower potency.

For `O=c1c(O)c(-c2ccc(O)c(O)c2)oc2cc(O)cc(O)c12` [QUER, quercetin], the IC50 was found to be 20.2 µM with IMR-32; 10.8 µM in the experiment with MML-1; 19.8 µM in the experiment with SK-N-AS; 8.2 µM with SK-ES-1; 19.1 µM in the experiment with CHP-126; 19.8 µM in the experiment with MSTO-211H. In addition, in the experiment with HT-29 xenografts, the “CRC growth inhibition compared with the 20 mg/kg×day dose” value is “not significantly different”.
Consider `Oc1ccc(/C=C/c2cc(O)cc(O)c2)cc1` [RI, trans-3,5,4′-trihydroxystilbene, reference compound], for which the cell cycle entry in [1] is “arrested in S phase”. For the same compound, the “caspase 3 activation” value in the experiment on caspase 3 is reported as “no caspase 3 activation was detected”. The IC50 in the experiment with IMR-32 is 43 µM; in the experiment on MML-1 it was 10.3 µM; in the experiment with SK-N-AS it was 68.3 µM; in the experiment on SK-ES-1, 27.2 µM; in the experiment on CHP-126 it was 26.7 µM; in the experiment on MSTO-211H, 6.37 µM. In experiment [2], the apoptosis result is “progressively activated”. For the same compound, the “Necrosis (LDH activity released to the extracellular medium)” value in [3] is on record as “progressively activated”.
For `COc1cc(/C=C/c2ccc(O)cc2)cc(OC)c1` [t-PTER, trans-3,5-dimethoxy-4′-hydroxystilbene], the cell cycle entry in experiment [1] is given as “arrested in S phase”. For the same compound, in the experiment with caspase 3, the “caspase 3 activation” value is recorded as “no caspase 3 activation was detected”. Besides, the IC50 is 42.8 µM in the experiment with IMR-32; 16.9 µM in the experiment on MML-1; 29.1 µM in the experiment with SK-N-AS; 42.7 µM in the experiment with SK-ES-1; 1.42 µM with CHP-126; 12.3 µM with MSTO-211H. Further, the apoptosis entry in experiment [2] is recorded as “progressively activated”. The “CRC growth inhibition compared with the 20 mg/kg×day dose” value in the experiment on HT-29 xenografts is given as “not significantly different”. In experiment [3], the “Necrosis (LDH activity released to the extracellular medium)” value is “progressively activated”.

Values taken from US20110136751A1, “Use of Polyphenols in the Treatment of Cancer” (Green Molecular, priority 2009, published 2011).
